Values after ≈ are worked out from the molar mass of the structure shown. Read-outs that look alike come from different tables or passages of the source.
Experiments:
[1] = amide bond, 24-membered ring, BOP-Cl/DIEA
[2] = system: Microfilaria of Dirofilaria immitis; experiment: Method B: survival of microfilaria of Dirofilaria immitis in microtitre plate; conditions: 72 h, read-out: median EC50, survival of microfilaria at 72 hours
Haemonchus contortus = experiment: Method A: development of L1 Haemonchus contortus larvae in microtitre plate; conditions: 96 h; for EC50: read-out: median EC50
Procedure: Twenty L1 Haemonchus contortus larvae were added to wells of a microtitre plate containing a nutrient medium and the test compound in DMSO. An analysis was conducted at 4 days to determine the extent of development of the larvae. Larvae exposed to DMSO alone served as controls. The potencies of the compounds were evaluated in an MIC90 and/or EC50 format.

[3] = the molecule shown is the open-chain precursor; amide bond; 24-membered ring; BOP-Cl/DIEA; DCM; 58.9 mM

Compound	EC50 [2] [µM]	EC50 (Haemonchus contortus) [µM]	also measured
C[C@H]1OC(=O)[C@H](CC(C)(C)C)N(C)C(=O)[C@@H](Cc2ccc(OC(F)(F)F)cc2)OC(=O)[C@H](CC(C)(C)F)N(C)C(=O)[C@@H](C)OC(=O)[C@H](CC(C)(C)C)N(C)C(=O)[C@@H](Cc2ccc(OC(F)(F)F)cc2)OC(=O)[C@H](CC(C)(C)F)N(C)C1=O [Compound 5-32]	0.1 to 1	0.1 to 1	ring closure, yield after HPLC ([1]; from H-MeLeu(4-F)-dPhLac(4-OCF3)-MeLeu(4-Me)-dLac-MeLeu(4-F)-dPhLac(4-OCF3)-MeLeu(4-Me)-dLac-OH, DCM, 4.17 mM): 59%
C[C@H]1OC(=O)[C@H](CC(C)(C)C)N(C)C(=O)[C@@H](Cc2ccc(C3CCOCC3)cc2)OC(=O)[C@H](CC(C)(C)F)N(C)C(=O)[C@@H](C)OC(=O)[C@H](CC(C)(C)C)N(C)C(=O)[C@@H](Cc2ccc(C3CCOCC3)cc2)OC(=O)[C@H](CC(C)(C)F)N(C)C1=O [Compound 7-32]	< 0.1	< 0.1	ring closure, yield after HPLC ([1]; from H-MeLeu(4-F)-dPhLac(4-(oxan-4-yl))-MeLeu(4-Me)-dLac-MeLeu(4-F)-dPhLac(4-(oxan-4-yl))-MeLeu(4-Me)-dLac-OH, DCM, 25.0 mM): 61%
CC(C)C[C@H]1C(=O)O[C@H](C)C(=O)N(C)[C@@H](CC(C)(C)F)C(=O)O[C@H](Cc2ccc(C(F)(F)F)cc2)C(=O)N(C)[C@@H](CC(C)C)C(=O)O[C@H](C)C(=O)N(C)[C@@H](CC(C)(C)F)C(=O)O[C@H](Cc2ccc(C(F)(F)F)cc2)C(=O)N1C [Compound 4-18]	< 0.1	0.1 to 1	ring closure, yield after HPLC ([1]; from H-MeLeu(4-F)-dPhLac(4-CF3)-MeLeu-dLac-MeLeu(4-F)-dPhLac(4-CF3)-MeLeu-dLac-OH?, DCM, 5.2 mM, 25.0 °C): 34%
CC(C)C[C@H]1C(=O)O[C@H](C)C(=O)N(C)[C@@H](CC(C)(C)F)C(=O)O[C@H](Cc2ccc(N3CCOCC3)cc2)C(=O)N(C)[C@@H](CC(C)C)C(=O)O[C@H](C)C(=O)N(C)[C@@H](CC(C)(C)F)C(=O)O[C@H](Cc2ccc(N3CCOCC3)cc2)C(=O)N1C [Compound 6-18]		0.1 to 1	ring closure, yield after HPLC ([1]; from H-MeLeu(4-F)-dPhLac(4-morpholinyl)-MeLeu-dLac-MeLeu(4-F)-dPhLac(4-morpholinyl)-MeLeu-dLac-OH?, DCM, 1.7 mM, 25.0 °C): 23%
H-MeLeu(4-F)-dPhLac(4-tBu)-MeLeu(4-Me)-dLac-MeLeu(4-F)-dPhLac(4-tBu)-MeLeu(4-Me)-dLac-OH			ring closure, isolated yield [3]: 55%
CC(C)C[C@H]1C(=O)O[C@H](Cc2ccc(C(C)(C)C)cc2)C(=O)N(C)[C@@H](CC(C)(C)F)C(=O)O[C@H](C)C(=O)N(C)[C@@H](CC(C)C)C(=O)O[C@H](Cc2ccc(C(C)(C)C)cc2)C(=O)N(C)[C@@H](CC(C)(C)F)C(=O)O[C@H](C)C(=O)N1C [Compound 18-19]	< 0.1		ring closure, yield after HPLC ([1]; from H-MeLeu-dPhLac(4-tBu)-MeLeu(4-F)-dLac-MeLeu-dPhLac(4-tBu)-MeLeu(4-F)-dLac-OH, DCM, 0.9 mM): 13%; MIC90 (Haemonchus contortus; read-out: median MIC90): 1 to 10 µM (≈ 1.1 to 11 µg/mL)
CC(C)C[C@H]1C(=O)O[C@H](C)C(=O)N(C)[C@@H](CC(C)(C)F)C(=O)O[C@H](Cc2ccc(C3CCOCC3)cc2)C(=O)N(C)[C@@H](CC(C)C)C(=O)O[C@H](C)C(=O)N(C)[C@@H](CC(C)(C)F)C(=O)O[C@H](Cc2ccc(C3CCOCC3)cc2)C(=O)N1C [Compound 7-18]	< 0.1	1 to 10	ring closure, yield after HPLC ([1]; from H-MeLeu(4-F)-dPhLac(4-(oxan-4-yl))-MeLeu-dLac-MeLeu(4-F)-dPhLac(4-(oxan-4-yl))-MeLeu-dLac-OH, DCM, 10.75 mM, 0.0 °C): 60%
CC(C)C[C@H]1C(=O)O[C@H](Cc2ccc(C3CCOCC3)cc2)C(=O)N(C)[C@@H](CC(C)C)C(=O)O[C@H](C)C(=O)N(C)[C@@H](CC(C)C)C(=O)O[C@H](Cc2ccc(C3CCOCC3)cc2)C(=O)N(C)[C@@H](CC(C)C)C(=O)O[C@H](C)C(=O)N1C [Compound 7-27]	< 0.1	1 to 10	ring closure, yield after HPLC ([1]; from H-MeLeu-dPhLac(4-oxan-4-yl)-MeLeu-dLac-MeLeu-dPhLac(4-oxan-4-yl)-MeLeu-dLac-OH?, 25.0 °C): 13%
